Test results published in patent publication US20070054908A1, “Novel pharmaceutical compositions and methods for treating tumors, including drug-resistant tumors” (priority 2005, published 2007).
Marks after values point to notes of the source that are not given here.

Key:
PC-3MM2 cells = test: Cell cycle and apoptosis in PC-3MM2 cells; assay type: cell-based, human
Protocol: (§1) Taxol is known to kill tumor cells by inducing arrest of cells at […] cell cycle and apoptosis. To identify mechanisms by which DL-001 killed tumor cells, we compared effects of DL-001 and Taxol on PC-3MM2 cells. […] To verify the role of DL-001 in inducing apoptosis, the activity of caspase 2,3,6,8 and 9 was analyzed. PC-3MM2 cells are treated with 50 nM of DL-001, taxol, or vincristine for 24 hr. Caspase activities in the treated cells are assessed by using a fluorometric caspase assay kit (Bio Vision, Mountain View, Calif.).

caspase 9 = test: Fluorometric caspase assay in PC-3MM2 cells, caspase 9; assay type: cell-based, human; settings: 50 nM, 24 hr
Protocol: as §1

4T1 (breast) = test: MTT cytotoxicity assay, 4T1; assay type: cell-based; settings: mouse cells
Protocol: (§2) To evaluate the cytotoxic activity of the two compounds, human prostate cancer cells (PC-3, LNCaP, and DU145) were plated into 96-well plate and incubated for 96 hr with various concentrations of desired drugs. During the last 2 hr, MTT (3-(4,5-dimethylthiazol-2-yl)-2,5-diphenyltetrazolium bromide) was added and the dark-blue formazan formed in live cells was dissolved in dimethyl sulfoxide and the absorbance was measured with a FLUOstar Optima microplate reader (BMG LABTECH Inc., Durham, N.C.) at 570 nm. The IC50 was defined as the concentration of a drug that inhibited cell growth by 50% (see Dong et al, supra, and Dong Z, et al. “Organ-specific modulation of steady-state mdr gene expression and drug resistance in murine colon cancer cells” J. Natl. Cancer Inst 1994;86(12):913-20, both references fully incorporated herein by this reference).
(§3) In addition, the present inventors discovered that the compounds could also effectively kill human breast (MCF-7 and MDA435) and melanoma (A375) cells, as well as several lines of mouse tumor cells, with similar potencies (Table 1). Moreover, DL-001 could effectively kill endothelial cells derived from mouse lung and prostate (Table 1). Furthermore, it appears that tumor cells (LNCaP, MCF-7, and A375) that harbor the wildtype p53 tumor suppressor gene were relatively more sensitive to DL-001 (Table 1).

DU145 (p53, mt) = test: MTT cytotoxicity assay, DU145; assay type: cell-based; settings: Homo sapiens, DU-145, 96 hr
Protocol: as §2

caspase 6 = test: Fluorometric caspase assay in PC-3MM2 cells, caspase 6; assay type: cell-based, human; settings: 50 nM, 24 hr
Protocol: as §1

CT-26 (colon, MDR) = test: MTT cytotoxicity assay, CT-26 MDR; assay type: cell-based; settings: Mus musculus, CT26, multidrug resistant
Protocol: as §2, §3

A375 (p53, wt) = test: MTT cytotoxicity assay, A375; assay type: cell-based; settings: Homo sapiens, A-375
Protocol: as §2, §3

PC-3 (p53, del) = test: MTT cytotoxicity assay, PC-3; assay type: cell-based; settings: Homo sapiens, 96 hr
Protocol: as §2

LNCaP (p53, wt) = test: MTT cytotoxicity assay, LNCaP; assay type: cell-based; settings: Homo sapiens, 96 hr
Protocol: as §2

B16 (melanoma) = test: MTT cytotoxicity assay, B16; assay type: cell-based; settings: mouse cells
Protocol: as §2, §3

[1] = test system: mouse endothelial cells, lung; test: MTT cytotoxicity assay, lung endothelial cells; assay type: cell-based; settings: Endothelial cell
Protocol: as §2, §3

UV2237 (fibrosarcoma) = test: MTT cytotoxicity assay, UV2237; assay type: cell-based; settings: mouse cells
Protocol: as §2, §3

MDA435 (p53, mt) = test: MTT cytotoxicity assay, MDA435; assay type: cell-based; settings: Homo sapiens
Protocol: as §2, §3

TRAMP (prostate) = test: MTT cytotoxicity assay, TRAMP; assay type: cell-based; settings: mouse cells
Protocol: as §2, §3

caspase 8 = test: Fluorometric caspase assay in PC-3MM2 cells, caspase 8; assay type: cell-based, human; settings: 50 nM, 24 hr
Protocol: as §1

CT-26 (colon) = test: MTT cytotoxicity assay, CT-26; assay type: cell-based; settings: CT26, mouse cells, parental
Protocol: as §2, §3

[2] = test system: mouse endothelial cells, prostate; test: MTT cytotoxicity assay, prostate endothelial cells; assay type: cell-based; settings: Endothelial cell
Protocol: as §2, §3

MCF-7 (p53, wt) = test: MTT cytotoxicity assay, MCF-7; assay type: cell-based; settings: Homo sapiens, MCF7
Protocol: as §2, §3

PC-3MM2 tumors = test: Orthotopic model of PC-3 human prostate cancer cells in nude mice; assay type: in vivo; settings: for toxic side effects on mice: based on body weight and H & E-stained sections of heart, lung, liver, kidney, spleen
Protocol: PC-3MM2 cells are implanted into the prostate of nude mice. The therapy begins 3 days later, when tumors are established, by daily intraperitoneal injection of DL-001 at 10 mg/kg or 20 mg/kg of body weight or of DMSO (solvent). Experiments are terminated 3 weeks later.

caspase 3 = test: Fluorometric caspase assay in PC-3MM2 cells, caspase 3; assay type: cell-based, human; settings: 50 nM, 24 hr
Protocol: as §1

caspase 2 = test: Fluorometric caspase assay in PC-3MM2 cells, caspase 2; assay type: cell-based, human; settings: 50 nM, 24 hr
Protocol: as §1

Row | SMILES | effect on cell cycle and apoptosis (PC-3MM2 cells) | Fold change of caspase activity compared with that in control cells, caspase 9 (caspase 9) | IC50 (DU145 (p53, mt)) | Fold change of caspase activity compared with that in control cells, caspase 6 (caspase 6) | IC50 (CT-26 (colon, MDR)) | IC50 (PC-3 (p53, del)) | Fold change of caspase activity compared with that in control cells, caspase 8 (caspase 8) | IC50 (CT-26 (colon)) | toxic side effects on mice (PC-3MM2 tumors) | Fold change of caspase activity compared with that in control cells, caspase 3 (caspase 3) | Fold change of caspase activity compared with that in control cells, caspase 2 (caspase 2) | also measured
1 | COc1ccc(C(=O)c2cc([N+](=O)O)ccc2N2CCCCC2)cc1 (racemic) [DL-001, (4-Methoxy-phenyl)-(5-nitro-2-piperidin-1-yl-phenyl)-methanone] | arrested at S/G2 checkpoint of cell cycle and went into apoptosis | 4 fold | 28 nM | 1 fold | 39 nM | 32 nM | 1 fold | 39 nM | did not produce significant toxic side effects | 22 fold | 17* fold | IC50 (4T1 (breast)): 30 nM; IC50 (A375 (p53, wt)): 23 nM; IC50 (LNCaP (p53, wt)): 11 nM; IC50 (B16 (melanoma)): 26 nM; IC50 [1]: 45 nM; IC50 (UV2237 (fibrosarcoma)): 35 nM; IC50 (MDA435 (p53, mt)): 30 nM; IC50 (TRAMP (prostate)): 41 nM; IC50 [2]: 51 nM; IC50 (MCF-7 (p53, wt)): 17 nM; growth of PC-3MM2 tumors in the prostate of nude mice (PC-3MM2 tumors; daily intraperitoneal injection, 10 mg/kg or 20 mg/kg (DL-001), from day 3, terminated 3 weeks later): inhibited growth of PC-3MM2 tumors in dose-dependent manner
2 | COc1ccc(C(=O)c2cc([N+](=O)O)ccc2N2CCOCC2)cc1 (racemic) [DL-002, (4-Methoxy-phenyl)-(2-morpholin-4-yl-5-nitro-phenyl)-methanone] | – | – | 30 nM | – | – | 30 nM | – | – | did not produce significant toxic side effects | – | – | –
3 | CC(=O)O[C@H]1C(=O)[C@@]2(C)[C@H]([C@H](OC(=O)c3ccccc3)[C@]3(O)C[C@H](OC(=O)[C@H](O)[C@@H](NC(=O)c4ccccc4)c4ccccc4)C(C)=C1C3(C)C)[C@]1(OC(C)=O)CO[C@@H]1C[C@@H]2O [Taxol] | arrested at S/G2 checkpoint of cell cycle and went into apoptosis | 7 fold | 3 nM | 1 fold | 367 nM | 4 nM | 1 fold | 73 nM | – | 34 fold | 26 fold | –
4 | CC[C@]1(O)C[C@H]2CN(CCc3c([nH]c4ccccc34)[C@@](C(=O)OC)(c3cc4c(cc3OC)N(C=O)[C@H]3[C@@](O)(C(=O)OC)[C@H](OC(C)=O)[C@]5(CC)C=CCN6CC[C@]43[C@@H]65)C2)C1 [Vincristine, vincristine] | – | 4 fold | 5 nM | 1 fold | 38 nM | 4 nM | 1 fold | 16 nM | – | 24 fold | 18 fold | –
